Experiment [1] addresses T1, helicase domain of the Pol θ protein (Homo sapiens, UniProt O75417).
T1 construct: The helicase domain of the Pol θ protein was purified from insect protein expression system; made in house; host or cells: insect protein expression system
The experiment is described as follows: Biochemical Activity Assay (ADP Glo Assay) of Pol θ inhibitor, ATPase activity. Particulars: ssDNA substrate, read-out: Biochemical assay IC50. Background: In ADP-Glo the light output rises with the ADP produced.

Another experiment is described as follows: cells. The settings on record: Homo sapiens, DLD-1, 240 h.
Setting [2] is: ADP-Glo assay, ATPase activity of Pol θ helicase domain.
The mark [3] stands for this setting: ADP-Glo, 60 min at room temperature.
Setting [4] is: read-out: Cell viability assay IC50 (nM), CTG assay, CellTiter Glo, read on Day 10, cell line not given.
[5] abbreviates: read-out: Cell viability assay IC50 (nM), CTG on Day 10, cell line not given (method: DLD1 and DLD1^-/- cells).

pIC50: −log10 of the molar value. Read-outs that look alike come from different tables or passages of the source.

T1 sequence (O75417 102-554 limits assumed): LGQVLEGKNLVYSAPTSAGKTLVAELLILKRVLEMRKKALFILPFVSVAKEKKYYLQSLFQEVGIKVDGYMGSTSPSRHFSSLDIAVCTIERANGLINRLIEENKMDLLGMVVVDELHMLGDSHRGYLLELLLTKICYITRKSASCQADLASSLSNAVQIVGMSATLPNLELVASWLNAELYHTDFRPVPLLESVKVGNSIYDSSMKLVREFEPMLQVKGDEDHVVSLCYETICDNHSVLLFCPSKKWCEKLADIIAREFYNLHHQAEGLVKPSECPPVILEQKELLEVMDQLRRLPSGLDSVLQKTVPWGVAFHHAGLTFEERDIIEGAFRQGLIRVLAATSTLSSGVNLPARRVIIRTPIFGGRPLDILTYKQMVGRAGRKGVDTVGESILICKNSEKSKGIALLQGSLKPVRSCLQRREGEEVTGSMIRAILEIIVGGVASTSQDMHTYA

As to `Cc1cc(-c2c(F)cccc2OC(F)F)c(C(=O)Nc2nc3ccc(C4=CCC(O)CC4)nc3s2)cn1` (stereo not drawn) [Example 7], the pIC50 – broadly, the IC50 on a negative log10 scale, so that one unit is a factor of ten – in experiment [1] (setting [2]) is 7.58; in experiment [1] (setting [3]) it was more than 7.30. The IC50 (as a rule, the concentration that gives 50% inhibition) in the experiment “cells” (setting [4]) is 73.6 nM; in “cells” (setting [5]) it was less than 100 nM.
The matching figures for `COc1cnc(Cl)c(F)c1-c1cc(C)ncc1C(=O)Nc1nc2ncc(C3=CCC(O)CC3)cc2s1` (stereo not drawn) [Example 8]: 8.96, more than 7.30, 24.2 nM and less than 100 nM.
With `COc1cnc(Cl)cc1-c1cc(C)ncc1C(=O)Nc1nc2ccc(C3=CCN(C)CC3)nc2s1` [Example 10], the pIC50 in experiment [1] (setting [2]) is 7.48; in experiment [1] (setting [3]) it was more than 7.30. In addition, the IC50 in the experiment “cells” (setting [4]) is 446 nM; in “cells” (setting [5]) it was 100 to 500 nM.
The matching figures for `COc1cnc(Cl)cc1-c1cc(C)ncc1C(=O)Nc1nc2ncc(C3=CCC(O)CC3)nc2s1` (stereo not drawn) [Example 12]: 8.62, more than 7.30, 15.3 nM and less than 100 nM.
The matching figures for `COc1cnc(Cl)cc1-c1cc(C)ncc1C(=O)Nc1nc2c(F)cc(C3=CCC(O)CC3)cc2s1` (stereo not drawn) [Example 13]: 8.54, more than 7.30, 5.84 nM and less than 100 nM.
The matching figures for `COc1cnc(Cl)cc1-c1cc(C)ncc1C(=O)Nc1nc2ncc(C3=CCOCC3)cc2s1` [Example 14]: 8.56, more than 7.30, 31.6 nM and less than 100 nM.
On to `COc1cnc(Cl)cc1-c1cc(C)ncc1C(=O)Nc1nc2ccc(C3=CCC(O)CC3)cc2s1` (stereo not drawn) [Example 15], for which the pIC50 in experiment [1] (setting [2]) was 8.45; in experiment [1] (setting [3]), more than 7.30. Besides, the IC50 is 14.7 nM in “cells” (setting [4]) and less than 100 nM in the experiment “cells” (setting [5]).
For the molecule `COc1cnc(Cl)cc1-c1cc(C)ncc1C(=O)Nc1nc2ncc(C3=CCNCC3)cc2s1` [Example 16], the pIC50 in experiment [1] (setting [2]) is 7.87; in experiment [1] (setting [3]), more than 7.30. Besides, the IC50 in the experiment “cells” (setting [4]) is 2330 nM; in the experiment “cells” (setting [5]) it was more than 1000 nM.
In the case of `COc1cnc(Cl)c(F)c1-c1cc(C)ncc1C(=O)Nc1nc2ncc(-c3ccn(C)n3)cc2s1` [Example 17], the pIC50 in experiment [1] (setting [2]) was 8.07; in experiment [1] (setting [3]) it was more than 7.30. The IC50 is 103 nM in the experiment “cells” (setting [4]) and 100 to 500 nM in “cells” (setting [5]).
The matching figures for `COc1cnc(Cl)cc1-c1cc(C)ncc1C(=O)Nc1nc2ncc(-c3cnc4[nH]ccc4c3)cc2s1` [Example 19]: 7.14, 6.70 to 7.30, 261 nM and 100 to 500 nM.
The matching figures for `COc1cnc(Cl)cc1-c1cc(C)ncc1C(=O)Nc1nc2ccc(C3=CCC(O)CC3)c(F)c2s1` (stereo not drawn) [Example 20]: 8.53, more than 7.30, 7.64 nM and less than 100 nM.
On to `COc1cnc(Cl)cc1-c1cc(C)ncc1C(=O)Nc1nc2ncc(C3=CCC(N)CC3)cc2s1` (stereo not drawn) [Example 21], for which the negative logarithm of the IC50 (pIC50) in experiment [1] (setting [2]) was 8.46; in experiment [1] (setting [3]) it was more than 7.30. The IC50 in “cells” (setting [4]) was 76.4 nM; in “cells” (setting [5]) it was less than 100 nM.
The matching figures for `COc1cnc(Cl)cc1-c1cc(C)ncc1C(=O)Nc1nc2ccc(C3=CCC(O)CC3)c(C#N)c2s1` (stereo not drawn) [Example 22]: 6.94, 6.70 to 7.30, 1580 nM and more than 1000 nM.
The matching figures for `COc1cnc(Cl)cc1-c1cc(C)ncc1C(=O)Nc1nc2ncc(C3=CCC(NC(C)=O)CC3)cc2s1` (stereo not drawn) [Example 23]: 8.55, more than 7.30, 15.3 nM and less than 100 nM.
The matching figures for `COc1cnc(Cl)cc1-c1cc(C)ncc1C(=O)Nc1nc2ccc(-c3ccn(C)n3)nc2s1` [Example 24]: 7.82, more than 7.30, 192 nM and 100 to 500 nM.
For `COc1cnc(Cl)cc1-c1cc(C)ncc1C(=O)Nc1nc2ncc(-n3ccccc3=O)cc2s1` [Example 25], the figures for the pIC50 in experiment [1] (setting [2]) and in experiment [1] (setting [3]) were 8.40 and more than 7.30, respectively. In addition, the figures for the IC50 in “cells” (setting [4]) and in the experiment “cells” (setting [5]) were 138 nM and 100 to 500 nM, respectively.
The matching figures for `COc1cnc(Cl)cc1-c1cc(C)ncc1C(=O)Nc1nc2ccc([C@H]3CC[C@H](O)CC3)nc2s1` [Example 29]: 7.89, more than 7.30, 131 nM and 100 to 500 nM.
Turning to `COc1cnc(Cl)c(F)c1-c1cc(C)ncc1C(=O)Nc1nc2ccc(C3CCC(O)CC3)cc2s1` (stereo not drawn) [Example 30], the pIC50 in experiment [1] (setting [2]) was 8.79; in experiment [1] (setting [3]), more than 7.30. For the same molecule, the IC50 in “cells” (setting [4]) was 19.2 nM; in the experiment “cells” (setting [5]), less than 100 nM.
Take `COc1cccc(F)c1-c1cc(C)ncc1C(=O)Nc1nc2ccc([C@H]3CC[C@@H](O)CC3)nc2s1` [Example 31]: the pIC50 in experiment [1] (setting [2]) is 7.18; in experiment [1] (setting [3]) it was 6.70 to 7.30. Further, the IC50 in “cells” (read-out: Cell viability assay IC50 (nM)) is more than 1000 nM.
On to `COc1cccc(F)c1-c1cc(C)ncc1C(=O)Nc1nc2ccc([C@H]3CC[C@H](O)CC3)nc2s1` [Example 32], for which the results for the pIC50 in experiment [1] (setting [2]) and in experiment [1] (setting [3]) were 6.71 and 6.70 to 7.30, respectively. Also, the results for the IC50 in the experiment “cells” (setting [4]) and in the experiment “cells” (setting [5]) were 7080 nM and more than 1000 nM, respectively.
The matching figures for `COc1cnc(Cl)cc1-c1cnccc1C(=O)Nc1nc2ccc([C@H]3CC[C@H](O)CC3)nc2s1` [Example 34]: 7.31, more than 7.30, 2000 nM and more than 1000 nM.
The matching figures for `COc1cnc(Cl)cc1-c1cc(C)ncc1C(=O)Nc1nc2cc(C3CCC(O)CC3)cnc2s1` (stereo not drawn) [Example 35]: 6.60, 6.30 to 6.70, 3290 nM and more than 1000 nM.
The matching figures for `COc1cnc(Cl)cc1-c1cc(C)ncc1C(=O)Nc1nc2ccc(C3CCN(C)CC3)nc2s1` [Example 36]: 6.63, 6.30 to 6.70, 584 nM and 500 to 1000 nM.
With `COc1cnc(Cl)cc1-c1cc(C)ncc1C(=O)Nc1nc2ncc(C3CCOCC3)cc2s1` [Example 37], the figures for the pIC50 in experiment [1] (setting [2]) and in experiment [1] (setting [3]) were 8.36 and more than 7.30, respectively. In addition, the IC50 was 44.7 nM in “cells” (setting [4]) and less than 100 nM in the experiment “cells” (setting [5]).
On to `COc1cnc(Cl)cc1-c1cc(C)ncc1C(=O)Nc1nc2ccc(N3CCC(O)C3)nc2s1` (stereo not drawn) [Example 47], for which the pIC50 was 7.28 in experiment [1] (setting [2]) and 6.70 to 7.30 in experiment [1] (setting [3]). Also, the IC50 in the experiment “cells” (setting [4]) was 631 nM; in the experiment “cells” (setting [5]) it was 500 to 1000 nM.
The matching figures for `COc1cnc(Cl)cc1-c1cc(C)ncc1C(=O)Nc1nc2ccc(N3CCC(C)(O)CC3)cc2s1` [Example 48]: 7.58, more than 7.30, 165 nM and 100 to 500 nM.
With `COc1cnc(Cl)c(F)c1-c1cc(C)ncc1C(=O)Nc1nc2ncc(N3CCOCC3)cc2s1` [Example 49], the pIC50 in experiment [1] (setting [2]) was 8.12; in experiment [1] (setting [3]), more than 7.30. The IC50 in “cells” (setting [4]) is 54.1 nM; in the experiment “cells” (setting [5]), less than 100 nM.
For the molecule `COc1cnc(Cl)cc1-c1cc(C)ncc1C(=O)Nc1nc2ncc(N3CCS(=O)(=O)CC3)cc2s1` [Example 50], the pIC50 is 8.08 in experiment [1] (setting [2]) and more than 7.30 in experiment [1] (setting [3]). Also, the figures for the IC50 in “cells” (setting [4]) and in “cells” (setting [5]) were 541 nM and 500 to 1000 nM, respectively.

These data come from EP4585599A1, “NITROGEN-CONTAINING FUSED RING COMPOUND, INTERMEDIATE THEREOF, PREPARATION METHOD THEREFOR AND USE THEREOF” (Hangzhou Synrx Therapeutics Biomedical Technology Co., Ltd., priority 2022, dated 2024).
